Results reported in the supplement of paper PMC10307832.

Tests used:
Assay in all cases: relative viability (nuclei count vs DMSO), 5 days (fraction); higher = more cells survive
[1] = compound: CCN(CCO)CCCC(C)Nc1ccnc2cc(Cl)ccc12 [Hydroxychloroquine] + Cc1nc(Nc2ncc(C(=O)Nc3c(C)cccc3Cl)s2)cc(N2CCN(CCO)CC2)n1 [Dasatinib] (partner 0.075 µM)
Procedure, shortened: (§1)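 The day after seeding in 1536-well plates, lung cancer cell lines were treated by pin tool with a single drug, or with a fixed anchor-drug dose together with five library-drug doses (not always all listed) in √10 steps. After 5 days, a combined fix-and-stain solution (final 0.05% Triton X-100, 1% formaldehyde, 1 ug/ml Hoechst) was added. Nuclei counted on 4× images gave relative viability as treated counts over vehicle counts, reported as the median of duplicate plates.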

[2] = compound: CCN(CCO)CCCC(C)Nc1ccnc2cc(Cl)ccc12 [Hydroxychloroquine] + O=C(CCCCCCC(=O)Nc1ccccc1)NO [Vorinostat] (partner 1 µM)
Procedure, shortened: as §1

[3] = compound: CCN(CCO)CCCC(C)Nc1ccnc2cc(Cl)ccc12 [Hydroxychloroquine] + C[C@@H](Oc1cc(-c2cnn(C3CCNCC3)c2)cnc1N)c1c(Cl)ccc(F)c1Cl [Crizotinib] (partner 1 µM)
Procedure, shortened: as §1

[4] = compound: CCN(CCO)CCCC(C)Nc1ccnc2cc(Cl)ccc12 [Hydroxychloroquine] + CS(=O)(=O)N1CCN(Cc2cc3nc(-c4cccc5[nH]ncc45)nc(N4CCOCC4)c3s2)CC1 [Pictilisib] (partner 1 µM)
Procedure, shortened: as §1

| Cell Line | relative viability ([1]; first compound 0.5 µM) | relative viability ([1]; first compound 1.581 µM) | relative viability ([1]; first compound 5 µM) | relative viability ([1]; first compound 15.81 µM) | relative viability ([1]; first compound 50 µM) | relative viability ([2]; first compound 0.5 µM) | relative viability ([2]; first compound 1.581 µM) | relative viability ([2]; first compound 5 µM) | relative viability ([2]; first compound 15.81 µM) | relative viability ([2]; first compound 50 µM) | relative viability ([3]; first compound 0.5 µM) | relative viability ([3]; first compound 1.581 µM) | relative viability ([3]; first compound 5 µM) | relative viability ([3]; first compound 15.81 µM) | relative viability ([3]; first compound 50 µM) | relative viability ([4]; first compound 0.5 µM) | relative viability ([4]; first compound 1.581 µM) | relative viability ([4]; first compound 5 µM) | relative viability ([4]; first compound 15.81 µM) | relative viability ([4]; first compound 50 µM) |
| --- | --- | --- | --- | --- | --- | --- | --- | --- | --- | --- | --- | --- | --- | --- | --- | --- | --- | --- | --- | --- |
| PC-3 [JPC-3] | 0.94 | 0.873 | 0.971 | 1.21 | 1.16 | 0.918 | 0.847 | 0.652 | 0.737 | 0.782 | 0.999 | 1 | 1.06 | 0.98 | 1.16 | 0.79 | 0.696 | 0.693 | 0.674 | 0.784 |
| PC-14 | 0.232 | 0.199 | 0.253 | 0.213 | 0.29 | 0.672 | 0.583 | 0.753 | 0.687 | 0.781 | 0.856 | 0.917 | 0.919 | 0.907 | 0.916 | 0.7 | 0.687 | 0.683 | 0.595 | 0.78 |
| RERF-LC-KJ | 0.71 | 0.731 | 0.793 | 0.734 | 1.02 | 0.696 | 0.607 | 0.631 | 0.692 | 0.677 | 0.942 | 0.785 | 0.786 | 0.848 | 0.81 | 0.43 | 0.518 | 0.55 | 0.488 | 0.603 |
| SK-LU-1 | 0.214 | 0.168 | 0.174 | 0.16 | 0.17 | 0.779 | 0.719 | 0.804 | 0.799 | 0.643 | 0.948 | 0.895 | 0.911 | 0.928 | 0.938 | 0.567 | 0.529 | 0.568 | 0.474 | 0.543 |
| SK-MES-1 | 0.342 | 0.306 | 0.388 | 0.37 | 0.339 | 1.33 | 0.882 | 1.2 | 1.23 | 1.27 | 0.933 | 0.955 | 1.13 | 1.1 | 1.03 | 0.4 | 0.373 | 0.321 | 0.342 | 0.359 |
| SW 1573 | 0.465 | 0.379 | 0.506 | 0.414 | 0.676 | 0.689 | 0.627 | 0.878 | 0.734 | 0.951 | 0.782 | 0.839 | 0.872 | 0.76 | 0.753 | 0.484 | 0.392 | 0.535 | 0.528 | 0.603 |
| UMC-11 | – | 0.504 | 0.473 | 0.628 | 0.6 | 0.4 | 0.314 | 0.387 | 0.393 | 0.457 | 0.586 | 0.573 | 0.69 | 0.664 | 0.846 | 0.843 | 0.542 | 0.752 | 0.844 | 1.03 |
